Publication PMC10066365, “Nemacol is a small molecule inhibitor of C. elegans vesicular acetylcholine transporter with anthelmintic potential” (Nature Communications, 2023)
Values joined by “and” are separate entries in the source; they are usually repeats but may differ in a detail not shown here. Identical values can stand only once.

System: C. elegans
Test: C. elegans motor phenotype scoring on solid media (Punc/jerky-unc, coiled, paralyzed), wild-type young adults
Format: in vivo, Caenorhabditis elegans
Conditions: for Fraction Paralyzed / Fraction Punc / Fraction Coiled: single replicate; for AVERAGES Fraction Coiled / AVERAGES Fraction Paralyzed / AVERAGES Fraction Punc: mean of 3 replicates
[1] = 60uM, one hour, young adults, 20 animals per trial, single replicate counts

CCC1CCC(N2CCN(c3ccc([N+](=O)[O-])cc3)CC2)CC1 (centres unmarked) [Nemacol-2]
Fraction Paralyzed (30 μM, 90 min, adults): 0.278 and 0.167 | Fraction Punc (30 μM, 90 min, adults): 0.444 and 0.556 and 0.667 | C1 (number of animals) (30 μM, 120 min, adults): 3 and 2 | C2 (number of animals) (30 μM, 120 min, adults): 1 and 2 | NP (number of animals) (30 μM, 120 min, adults): 0 | AVERAGES Fraction Coiled (30 μM, 120 min, adults): 0.2 | AVERAGES Fraction Paralyzed (30 μM, 120 min, adults): 0.278 | AVERAGES Fraction Punc (30 μM, 120 min, adults): 0.5 | Fraction Coiled (30 μM, 120 min, adults): 0.222 and 0.167 | Fraction Paralyzed (30 μM, 120 min, adults): 0.556 and 0.222 and 0.0556 | Fraction Punc (30 μM, 120 min, adults): 0.222 and 0.6 and 0.7 | NP (number of animals) (30 μM, 240 min, adults): 2 and 3 and 4 | P (number of animals) (30 μM, 240 min, adults): 4 and 2 | Punc (number of animals) (30 μM, 240 min, adults): 11 and 12 | AVERAGES Fraction Coiled (30 μM, 240 min, adults): 0.0556 | AVERAGES Fraction Paralyzed (30 μM, 240 min, adults): 0.148 | AVERAGES Fraction Punc (30 μM, 240 min, adults): 0.6 | Fraction Coiled (30 μM, 240 min, adults): 0.0556 and 0.111 and 0.0 | Fraction Paralyzed (30 μM, 240 min, adults): 0.222 and 0.111 | Fraction Punc (30 μM, 240 min, adults): 0.6 and 0.667 | C2 (number of animals) (30 μM, 360 min, adults): 0 | NP (number of animals) (30 μM, 360 min, adults): 6 and 9 and 10 | Punc (number of animals) (30 μM, 360 min, adults): 5 and 7 and 8 | AVERAGES Fraction Coiled (30 μM, 360 min, adults): 0.0196 | AVERAGES Fraction Paralyzed (30 μM, 360 min, adults): 0.135 | AVERAGES Fraction Punc (30 μM, 360 min, adults): 0.376 | Fraction Coiled (30 μM, 360 min, adults): 0.0588 and 0.0 | Fraction Paralyzed (30 μM, 360 min, adults): 0.3 and 0.111 and 0.0 | Fraction Punc (30 μM, 360 min, adults): 0.3 and 0.4 and 0.444 | C1 (number of animals) (60 μM, 30 min, adults): 3 and 4 | C2 (number of animals) (60 μM, 30 min, adults): 2 | NP (number of animals) (60 μM, 30 min, adults): 0 | Punc (number of animals) (60 μM, 30 min, adults): 7 and 10 and 12 | AVERAGES Fraction Coiled (60 μM, 30 min, adults): 0.3 | AVERAGES Fraction Paralyzed (60 μM, 30 min, adults): 0.154 | AVERAGES Fraction Punc (60 μM, 30 min, adults): 0.545 | Fraction Coiled (60 μM, 30 min, adults): 0.3 and 0.333 and 0.278 | Fraction Paralyzed (60 μM, 30 min, adults): 0.3 and 0.111 and 0.0556 | Fraction Punc (60 μM, 30 min, adults): 0.4 and 0.556 and 0.667 | C2 (number of animals) (60 μM, 60 min, adults): 2 and 4 and 3 | NP (number of animals) (60 μM, 60 min, adults): 0 | P (number of animals) (60 μM, 60 min, adults): 9 and 7 and 8 | Punc (number of animals) (60 μM, 60 min, adults): 4 and 6 | AVERAGES Fraction Coiled (60 μM, 60 min, adults): 0.259 | AVERAGES Fraction Paralyzed (60 μM, 60 min, adults): 0.444 | AVERAGES Fraction Punc (60 μM, 60 min, adults): 0.3 | Fraction Coiled (60 μM, 60 min, adults): 0.278 and 0.222 | Fraction Paralyzed (60 μM, 60 min, adults): 0.5 and 0.4 and 0.444 | Fraction Punc (60 μM, 60 min, adults): 0.222 and 0.333 | C1 (number of animals) (60 μM, 90 min, adults): 3 and 4 | C2 (number of animals) (60 μM, 90 min, adults): 3 and 4 | NP (number of animals) (60 μM, 90 min, adults): 0 | AVERAGES Fraction Coiled (60 μM, 90 min, adults): 0.37 | AVERAGES Fraction Paralyzed (60 μM, 90 min, adults): 0.426 | AVERAGES Fraction Punc (60 μM, 90 min, adults): 0.2 | Fraction Coiled (60 μM, 90 min, adults): 0.333 and 0.4 | Fraction Paralyzed (60 μM, 90 min, adults): 0.6 and 0.222 and 0.444 | Fraction Punc (60 μM, 90 min, adults): 0.0556 and 0.4 and 0.167 | C1 (number of animals) (60 μM, 120 min, adults): 2 | NP (number of animals) (60 μM, 120 min, adults): 0 | AVERAGES Fraction Coiled (60 μM, 120 min, adults): 0.3 | AVERAGES Fraction Paralyzed (60 μM, 120 min, adults): 0.4 | AVERAGES Fraction Punc (60 μM, 120 min, adults): 0.3 | Fraction Coiled (60 μM, 120 min, adults): 0.222 and 0.444 | Fraction Paralyzed (60 μM, 120 min, adults): 0.6 and 0.333 and 0.278 | Fraction Punc (60 μM, 120 min, adults): 0.167 and 0.444 and 0.278 | NP (number of animals) (60 μM, 240 min, adults): 0 | AVERAGES Fraction Coiled (60 μM, 240 min, adults): 0.167 | AVERAGES Fraction Paralyzed (60 μM, 240 min, adults): 0.352 | AVERAGES Fraction Punc (60 μM, 240 min, adults): 0.5 | Fraction Coiled (60 μM, 240 min, adults): 0.167 | Fraction Paralyzed (60 μM, 240 min, adults): 0.6 and 0.222 | Fraction Punc (60 μM, 240 min, adults): 0.222 and 0.6 | Punc (number of animals) (60 μM, 360 min, adults): 6 and 11 and 10 | Remark on animals at 360 min (60 μM, 360 min, adults): look dead | AVERAGES Fraction Coiled (60 μM, 360 min, adults): 0.0556 | AVERAGES Fraction Paralyzed (60 μM, 360 min, adults): 0.4 | AVERAGES Fraction Punc (60 μM, 360 min, adults): 0.5 | Fraction Coiled (60 μM, 360 min, adults): 0.0556 and 0.111 and 0.0 | Fraction Paralyzed (60 μM, 360 min, adults): 0.6 and 0.278 | Fraction Punc (60 μM, 360 min, adults): 0.333 and 0.6 and 0.556 | atypical locomotion (number of animals) [1]: 3 and 6 and 1 | coiled (number of animals) [1]: 9 and 6 and 3 and 1 | no phene (number of animals) [1]: 0 | paralyzed (number of animals) [1]: 8 and 14 and 18 | EC50 (Caenorhabditis elegans, 1 h, Fig. 1, dose-response at 60 min, wild-type young adults, +/- 95% CI, read-out: EC50): 6.6 ± 0.4 µM
